pEC50, pIC50: −log10 of the molar value. Where two headings read alike, the source gives them in different places.
Key:
[1] = biological target: T1, HCV NS5B polymerase (His-tagged, C-terminal 21 amino acid deleted NS5B, HC-J4) (Hepatitis C virus genotype 1b, UniProt O92972); test: NS5b polymerase assay (biochemical RdRp assay, 3H-GTP incorporation, SPA beads); set-up: species or system HCV genotype 1b; details: for pIC50: 3H-GTP incorporation, 2 h at 25° C.; for IC50: NS5B Polymerase Assay IC50 (μM)
T1 construct: The cDNA encoding NS5B amino acid 1-570 (HC-J4, genotype 1b); His tag (His6, from pET-21b) (C); made in house; host or cells: E. coli BL21 (DE3)
Summary of the method: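 His-tagged C-terminal-21-aa-deleted NS5B (genotype 1b, HC-J4) at 200 nM was preincubated 15 min at RT with compound on 5′-biotinylated oligo(rG13)/poly(rC) template/primer before NTPs. Reaction with 600 nM GTP plus 0.1 μCi 3H-GTP and 5 mM MgCl2 in Tris pH 7.5 ran 2 h at 25 °C. Stopped with EDTA/SPA beads for incorporation counting.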

[2] = tested on: HCV replicon RNA replication in Huh-7 luc/neo (Huh-Luc) cells; test: HCV replicon assay (stable replicon cell reporter assay, luciferase read-out); format: cell-based, HCV type 1b; details: for EC50: read-out: Replicon Assay EC50 (μM), Huh-Luc cells, incubation of three days, luciferase activity
Summary of the method: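 Huh-7 cells stably carry a bicistronic HCV 1b NS3-NS5B subgenomic replicon with firefly luciferase and neo markers. Cells were plated with compound across a concentration range and incubated three days. Replication was measured as luciferase activity to give dose-response curves.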

[3] = NS5B Polymerase Assay IC50, 200 nM enzyme
[4] = Hepatitis C virus, Huh-7, 72 h, read-out: Replicon Assay EC50, Huh-Luc cells, three days incubation, luciferase activity
[5] = 200 nM enzyme, read-out: NS5B Polymerase Assay IC50
[6] = Huh-Luc cells, three days incubation, luciferase activity, read-out: Replicon Assay EC50

T1 sequence (O92972 2417-3000, looked up, stated change not applied): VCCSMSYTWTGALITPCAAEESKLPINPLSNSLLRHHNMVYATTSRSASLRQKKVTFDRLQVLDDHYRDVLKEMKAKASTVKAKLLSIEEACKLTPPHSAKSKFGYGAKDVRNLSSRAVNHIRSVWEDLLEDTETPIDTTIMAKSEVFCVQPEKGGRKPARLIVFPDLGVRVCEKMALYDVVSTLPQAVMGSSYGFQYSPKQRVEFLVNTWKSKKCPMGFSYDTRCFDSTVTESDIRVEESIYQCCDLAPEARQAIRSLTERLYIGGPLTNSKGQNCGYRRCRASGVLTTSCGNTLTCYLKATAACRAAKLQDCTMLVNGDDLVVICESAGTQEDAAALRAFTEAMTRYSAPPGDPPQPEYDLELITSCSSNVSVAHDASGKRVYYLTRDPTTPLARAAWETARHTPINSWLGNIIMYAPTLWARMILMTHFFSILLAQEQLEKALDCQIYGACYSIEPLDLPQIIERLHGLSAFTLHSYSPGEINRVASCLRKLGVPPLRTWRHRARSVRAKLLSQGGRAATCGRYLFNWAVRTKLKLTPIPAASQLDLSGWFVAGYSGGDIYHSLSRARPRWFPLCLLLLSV

SMILES	pIC50 [1, 3]	pEC50 [2, 4]	further results
CC(=O)N1c2ccccc2NC2=C(C(=O)CC(C)(C)C2)C1c1cccnc1 (centres unmarked) [compound 258]	< 4.37	< 4.49	–
CC(C)C(=O)N1c2ccccc2NC2=C(C(=O)CC(C)(C)C2)C1c1cccnc1 (centres unmarked) [compound 259]	4.53	< 4.48	–
Cn1cccc1C1C2=C(CC(C)(C)CC2=O)Nc2ccccc2N1C(=O)C(F)(F)F (centres unmarked) [compound 260]	< 4.37	4.65	–
CCC(=O)N1c2ccc(C(=O)c3ccccc3)cc2NC2=C(C(=O)CC(C)(C)C2)C1c1ccco1 (centres unmarked) [compound 261]	–	–	pIC50 [1, 5]: < 4.37; pEC50 [2, 6]: 5.03
CC(C)C(=O)N1c2ccccc2NC2=C(C(=O)CC(C)(C)C2)C1c1ccc(Br)s1 (centres unmarked) [compound 262]	< 4.37	5.26	–
CCCCC(=O)N1c2ccccc2NC2=C(C(=O)CC(C)(C)C2)C1c1cccs1 (centres unmarked) [compound 263]	< 4.37	4.98	–
CC1(C)CC(=O)C2=C(C1)Nc1ccccc1N(C(=O)c1ccccc1)C2/C=C/c1ccccc1 (centres unmarked) [compound 264]	–	–	pIC50 [1, 5]: < 4.37; pEC50 [2, 6]: 5.05
CCCCC(=O)N1c2ccccc2NC2=C(C(=O)CC(C)(C)C2)C1c1ccc2c(c1)OCO2 (centres unmarked) [compound 265]	< 4.37	4.95	–
CC1(C)CC(=O)C2=C(C1)Nc1ccccc1N(C(=O)C(F)(F)F)C2c1ccc2c(c1)OCO2 (centres unmarked) [compound 266]	< 4.37	4.62	–
CC1(C)CC(=O)C2=C(C1)Nc1ccccc1N(C(=O)C(F)(F)F)C2c1cccs1 (centres unmarked) [compound 267]	< 4.37	5.03	–
CC1(C)CC(=O)C2=C(C1)Nc1ccccc1N(C(=O)Cc1ccccc1)C2c1cc2c(cc1Br)OCO2 (centres unmarked) [compound 268]	< 4.37	5.04	–
CC1(C)CC(=O)C2=C(C1)Nc1ccccc1N(C(=O)c1ccccc1)C2c1cccs1 (centres unmarked) [compound 269]	< 4.48	4.71	–
CC(C)CC(=O)N1c2ccccc2NC2=C(C(=O)CC(C)(C)C2)C1c1cccnc1 (centres unmarked) [compound 270]	< 4.48	4.59	–
Cc1ccc(C2C3=C(CC(C)(C)CC3=O)Nc3ccccc3N2C(=O)Cc2ccccc2)o1 (centres unmarked) [compound 271]	< 4.48	4.64	–
CC1(C)CC(=O)C2=C(C1)Nc1ccccc1N(C(=O)Cc1ccccc1)C2c1ccc2c(c1)OCO2 (centres unmarked) [compound 275]	< 4.37	5.00	–
CC1(C)CC(=O)C2=C(C1)Nc1ccccc1N(C(=O)C(F)(F)F)C2c1ccco1 (centres unmarked) [compound 276]	< 4.37	< 4.49	–
CC(=O)N1c2ccccc2NC2=C(C(=O)CC(C)(C)C2)C1c1cc2c(cc1Br)OCO2 (centres unmarked) [compound 277]	< 4.37	4.87	–
CC1(C)CC(=O)C2=C(C1)Nc1ccccc1N(C(=O)C(F)(F)F)C2c1ccc(-c2ccc(Br)cc2)o1 (centres unmarked) [compound 278]	< 4.37	4.88	–
CC(=O)N1c2ccccc2NC2=C(C(=O)CC(C)(C)C2)C1c1ccc(-c2ccc([N+](=O)[O-])cc2Cl)o1 (centres unmarked) [compound 279]	< 4.37	5.03	–
CC(=O)N1c2ccccc2NC2=C(C(=O)CC(C)(C)C2)C1c1ccc(-c2cccc(C(=O)O)c2)o1 (centres unmarked) [compound 280]	< 4.37	< 4.49	–
CC(=O)N1c2ccccc2NC2=C(C(=O)CC(C)(C)C2)C1c1ccccn1 (centres unmarked) [compound 281]	< 4.37	< 4.49	–
CC(=O)N1c2ccccc2NC2=C(C(=O)CC(C)(C)C2)C1c1ccc(Br)s1 (centres unmarked) [compound 282]	< 4.37	4.77	–
CC(=O)N1c2ccccc2NC2=C(C(=O)CC(C)(C)C2)C1c1ccc(C)o1 (centres unmarked) [compound 283]	< 4.37	< 4.49	–
CC(=O)N1c2ccccc2NC2=C(C(=O)CC(C)(C)C2)C1c1ccc2c(c1)OCO2 (centres unmarked) [compound 284]	< 4.37	4.51	–
O=C1CC(c2ccco2)CC2=C1C(c1cccc([N+](=O)[O-])c1)N(C(=O)c1ccccc1)c1ccccc1N2 (centres unmarked) [compound 286]	–	–	pIC50 [1, 5]: < 4.37; pEC50 [2, 6]: 4.72
COc1ccc(C2C3=C(CC(c4cccs4)CC3=O)Nc3ccccc3N2C(=O)Nc2ccc(Cl)c(Cl)c2)cc1 (centres unmarked) [compound 287]	< 4.48	5.30	–

SMILES	pIC50 [1, 3]	pEC50 [2, 4]	further results
CCC(=O)N1c2ccccc2NC2=C(C(=O)CC(c3ccco3)C2)C1c1cccc([N+](=O)[O-])c1 (centres unmarked) [compound 288]	–	–	pIC50 [1, 5]: < 4.37; pEC50 [2, 6]: 4.60
CCCCCC(=O)N1c2ccccc2NC2=C(C(=O)CC(c3ccco3)C2)C1c1ccc(Cl)cc1 (centres unmarked) [compound 289]	< 4.48	4.81	–
CC(=O)N1c2ccccc2NC2=C(C(=O)CCC2)C1c1ccc(Cl)cc1Cl (centres unmarked) [compound 291, 10-Acetyl-11-(2,4-dichlorophenyl)-2,3,4,5,10,11-hexahydro-1H-dibenzo[b,e][1,4]-diazepin-1-one]	< 4.37	< 4.49	–
COc1ccc(C2C3=C(CC(c4ccco4)CC3=O)Nc3ccccc3N2C(C)=O)cc1OC (centres unmarked) [compound 293]	< 4.37	< 4.49	–
CC(=O)N1c2ccccc2NC2=C(C(=O)CC(C)C2)C1c1ccc(Cl)cc1Cl (centres unmarked) [compound 294, 10-acetyl-11-(2,4-dichlorophenyl)-3-methyl-2,3,4,5,10,11-hexahydro-1H-dibenzo[b,e][1,4]diazepin-1-one]	4.98	4.38	–
CCN(CC)c1ccc(C2CC(=O)C3=C(C2)Nc2ccccc2N(C(=O)c2ccccc2)C3c2ccco2)cc1 (centres unmarked) [compound 295]	< 4.37	4.67	–
O=C1CC(c2cccc([N+](=O)[O-])c2)CC2=C1C(c1ccco1)N(C(=O)C(F)(F)F)c1ccccc1N2 (centres unmarked) [compound 296]	< 4.37	4.74	–
O=C1CC(c2ccco2)CC2=C1C(c1ccco1)N(C(=O)C(F)(F)F)c1ccccc1N2 (centres unmarked) [compound 297]	< 4.37	4.63	–
COc1ccc(C2CC(=O)C3=C(C2)Nc2ccccc2N(C(C)=O)C3c2ccco2)cc1 (centres unmarked) [compound 298]	–	–	pIC50 [1, 5]: < 4.37; pEC50 [2, 6]: < 4.49
CC(=O)N1c2ccccc2NC2=C(C(=O)CC(c3ccccc3OCc3ccccc3)C2)C1C(Br)=Cc1ccccc1 (centres unmarked) [compound 300]	–	–	pIC50 [1, 5]: < 3.88; pEC50 [2, 6]: 6.15
COc1cc2c(cc1OC)N(C(C)=O)C(c1ccc(Cl)cc1Cl)C1=C(CC(C)(C)CC1=O)N2 (centres unmarked) [compound 309, 10-acetyl-7,8-dimethoxy-11-(2,4-dichlorophenyl)-3,3-dimethyl-2,3,4,5,10,11-hexahydro-1H-dibenzo[b,e][1,4]diazepin-1-one]	< 3.88	4.40	–
CC(=O)N1c2cc(F)c(F)cc2NC2=C(C(=O)CC(C)(C)C2)C1c1ccc(Cl)cc1Cl (centres unmarked) [compound 310, 10-acetyl-7,8-difluoro-11-(2,4-dichlorophenyl)-3,3-dimethyl-2,3,4,5,10,11-hexahydro-1H-dibenzo[b,e][1,4]diazepin-1-one]	4.84	4.78	–
CC(=O)N1c2cccc(Br)c2NC2=C(C(=O)CC(C)(C)C2)C1c1ccc(Cl)cc1Cl (centres unmarked) [compound 312]	5.21	5.11	–
CC(=O)N1c2c(C)cccc2NC2=C(C(=O)CC(C)(C)C2)C1c1ccc(Cl)cc1Cl (centres unmarked) [compound 314]	5.35	5.52	–
CC(=O)N1c2cccc(C#N)c2NC2=C(C(=O)CC(C)(C)C2)C1c1ccc(Cl)cc1Cl (centres unmarked) [compound 316]	5.16	4.81	–
CCCCOc1cccc2c1NC1=C(C(=O)CC(C)(C)C1)C(c1ccc(Cl)cc1Cl)N2C(C)=O (centres unmarked) [compound 317]	< 3.88	5.24	–
COc1cccc2c1NC1=C(C(=O)CC(C)(C)C1)C(c1ccc(Cl)cc1Cl)N2C(C)=O (centres unmarked) [compound 320]	5.17	4.48	–
COc1ccc(C2CC(=O)C3=C(C2)Nc2ccccc2NC3c2ccccc2C(F)(F)F)cc1 (centres unmarked) [compound 324]	–	–	IC50 [1]: > 42.6 µM; EC50 ([2]; Hepatitis C virus, Huh-7, 72 h): 18.5 µM
O=C1CC(c2ccccc2)CC2=C1C(c1ccc(Cl)cc1)Nc1ccccc1N2 (centres unmarked) [compound 325]	–	–	IC50 [1]: > 42.6 µM; EC50 ([2]; Hepatitis C virus, Huh-7, 72 h): 16.3 µM
COc1ccc(C2CC(=O)C3=C(C2)Nc2ccccc2NC3c2cccc(OCc3ccccc3)c2)cc1 (centres unmarked) [compound 326]	–	–	IC50 [1]: > 33.3 µM; EC50 ([2]; Hepatitis C virus, Huh-7, 72 h): 4.69 µM
COc1ccc(C2CC(=O)C3=C(C2)Nc2ccccc2NC3c2cccc(F)c2)cc1 (centres unmarked) [compound 327]	–	–	IC50 [1]: > 33.3 µM; EC50 ([2]; Hepatitis C virus, Huh-7, 72 h): 12.5 µM
COc1ccc(C2CC(=O)C3=C(C2)Nc2ccccc2NC3c2ccc(N(C)C)cc2)cc1 (centres unmarked) [compound 328]	–	–	IC50 [1]: > 42.7 µM; EC50 ([2]; Hepatitis C virus, Huh-7, 72 h): 22.7 µM
COc1ccc(C2CC(=O)C3=C(C2)Nc2ccccc2NC3c2ccc(C(F)(F)F)cc2)cc1 (centres unmarked) [compound 329]	–	–	IC50 [1]: > 33.3 µM; EC50 ([2]; Hepatitis C virus, Huh-7, 72 h): 11.1 µM
COc1cccc(C2Nc3ccccc3NC3=C2C(=O)CC(c2ccccc2)C3)c1 (centres unmarked) [compound 330]	–	–	IC50 [1]: > 42.7 µM; EC50 ([2]; Hepatitis C virus, Huh-7, 72 h): 23.2 µM
COc1ccc(C2CC(=O)C3=C(C2)Nc2ccccc2NC3c2cccc(Oc3ccccc3)c2)cc1 (centres unmarked) [compound 331]	–	–	IC50 [1]: > 42.7 µM; EC50 ([2]; Hepatitis C virus, Huh-7, 72 h): 7.44 µM
CCOc1ccc(C2Nc3ccccc3NC3=C2C(=O)CC(c2ccc(OC)cc2)C3)cc1 (centres unmarked) [compound 332]	–	–	IC50 [1]: > 42.7 µM; EC50 ([2]; Hepatitis C virus, Huh-7, 72 h): 9.74 µM

— patent US20090221559A1 (priority 2005, published 2009)
